IC50 and remaining activity data for 20 compounds are collected here from patent US8802711B2, “TRPV1 antagonists” (AbbVie Inc., priority 2011, dated 2014).

Assay [1] deals with T1, human TRPV1 receptor (hTRPV1) (Homo sapiens (Human), UniProt Q8NER1). The assay is described as follows: Capsaicin activation assay (FLIPR intracellular Ca2+). In kind it is cell-based. Conditions: Table 1; inhibition of capsaicin-induced intracellular Ca2+ increase, HEK293 cells expressing human TRPV1; read-out: hTRPV1 cap IC50. Here is the method:
Dulbecco's modified Eagle medium (D-MEM) (with 4.5 mg/mL glucose) and fetal bovine serum were obtained from Hyclone Laboratories, Inc. (Logan, Utah). Dulbecco's phosphate-buffered saline (D-PBS) (with 1 mg/mL glucose and 3.6 mg/l Na pyruvate, without phenol red), L-glutamine, hygromycin B, and Lipofectamine® were obtained from Life Technologies (Grand Island, N.Y.). G418 sulfate was obtained from Calbiochem-Novabiochem Corp. (San Diego, Calif.). Capsaicin (8-methyl-N-vanillyl-6-nonenamide) was obtained from Sigma-Aldrich, Co. (St. Louis, Mo.). Fluo-4 AM (N-[4-[6-[(acetyloxy)methoxy]-2,7-difluoro-3-oxo-3H-xanthen-9-yl]-2-[2-[2-[bis[2-[(acetyloxy)methoxy]-2-oxyethyl]amino]-5-methyl phenoxy]ethoxy]phenyl]-N-[2-[(acetyloxy)methoxy]-2-oxyethyl]-glycine, (acetyloxy)methyl ester) was purchased from Molecular Probes (Eugene, Oreg.). […]
The functional activity of compounds at the TRPV1 receptor was determined by measurement of intracellular Ca^2+ levels ([Ca^2+]i) using the Fluorescence Imaging Plate Reader (FLIPR)^TETRA®. All compounds were tested over a 12-point one-third-log concentration range. Compound stocks, 10 mM, were prepared in DMSO, and diluted serially across a 384-well plate using a Bravo BenchCel workstation (Agilent Technologies, Santa Clara, Calif.). A stock concentration of capsaicin (10 mM) was made in DMSO, and diluted in D-PBS to a final concentration of 200 nM (4×). On the day prior to the experiment, recombinant HEK293 cells that stably express human TRPV1 were removed from tissue culture flasks and plated in growth medium into black-walled clear-bottom 384-well Biocoat™ poly-D-lysine assay plates (BD Biosciences, Bedford, Mass.) using a Multidrop® dispenser (ThermoScientific, Waltham, Mass.). On the day of the experiment, growth medium was removed, and the no-wash FLIPR® Calcium-4 dye (λEX=470-495 nm, λEM=515-575 nm; Molecular Devices, Sunnyvale, Calif.) was added to each well using the Multidrop® dispenser. Cells were incubated for 90-120 minutes in the dark at room temperature. Test compounds were added to the cells 3 minutes prior to the addition of 200 nM capsaicin (4×), and the final assay volume was 80 μL. Fluorescence readings were made at 1 to 5 second intervals over the course of the experimental run. The peak increase in relative fluorescence units (minus baseline) was calculated, and expressed as a percentage of the 50 nM capsaicin (control) response.

The target in assay [2] is T1, human TRPV1 receptor (hTRPV1). Briefly: Acid activation assay (pH 5.0, FLIPR intracellular Ca2+). Format: cell-based. Conditions: Table 1; 37.5 μM antagonist, percentage of the maximal pH 5.0-induced response remaining; read-out: hTRPV1 H+ (max % remain). Here is the method: Dulbecco's modified Eagle's medium (DMEM) with 4.5 mg/mL D-glucose, fetal bovine serum, L-glutamine, and 2-morpholinoethanesulfonic acid (MES) were purchased from Sigma-Aldrich Co. (St. Louis, Mo.). Dulbecco's phosphate-buffered saline (DPBS) with Ca^2+, Mg^2+, and 1 mg/mL D-glucose (pH 7.4), Geneticin®, 0.25% trypsin-1 mM EDTA, and penicillin-streptomycin were purchased from Invitrogen Corp. (Carlsbad, Calif.). The FLIPR® Calcium 4 assay kit was purchased from Molecular Devices (Sunnyvale, Calif.).
The cDNAs for the human TRPV1 receptor (hTRPV1) were isolated by reverse transcriptase-polymerase chain reaction (RT-PCR) from human small intestine poly A+RNA supplied by Clontech (Palo Alto, Calif.) using primers designed surrounding the initiation and termination codons identical to the published sequences (Hayes et al. Pain 2000, 88, 205-215). The resulting cDNA PCR products were subcloned into pCIneo mammalian expression vector (Promega) and fully sequenced using fluorescent dye-terminator reagents (Prism, Perkin-Elmer Applied Biosystems Division) and a Perkin-Elmer Applied Biosystems Model 373 DNA sequencer or Model 310 genetic analyzer. Expression plasmids encoding the hTRPV1 cDNA were transfected individually into 1321N1 human astrocytoma cells using Lipofectamine. Forty-eight hours after transfection, the neomycin-resistant cells were selected with growth medium containing 800 μg/mL Geneticin (Gibco BRL). Surviving individual colonies were isolated and screened for TRPV1 receptor activity. Cells expressing recombinant homomeric TRPV1 receptors were maintained at 37° C. in DMEM containing 4 mM L-glutamine, 300 μg/mL G418 (Cal-biochem) and 10% fetal bovine serum under a humidified 5% CO2 atmosphere.
The functional activity of compounds at the TRPV1 receptor was determined by measurement of intracellular Ca^2+ levels ([Ca^2+]i) using the Fluorescence Imaging Plate Reader (FLIPR)^TETRA®. All compounds were tested over a 12-point one-half-log concentration range. Compound stocks, 10 mM, were prepared in DMSO, and diluted serially across a 384-well plate using a Bravo BenchCel workstation (Agilent Technologies, Santa Clara, Calif.).
On the day of the experiment growth medium was removed, and the no-wash FLIPR® Calcium-4 dye (λEX=470-495 nm, λEM=515-575 nm) was added to each well using the Multidrop® dispenser. Cells were incubated for 90-120 minutes in the dark at 25° C. Test compounds were dissolved in DMSO, and plates were prepared using an Agilent Bravo workstation (Agilent Technologies Inc., Santa Clara, Calif.). Compounds were added to the cells 3 minutes prior to the addition of a pH 5.0 solution. Reagents were delivered at a rate of 40 μL/sec, and the final assay volume was 80 μL. Acidic pH solutions were prepared by titration of DPBS/MES with 1 N HCl. The intensity of the fluorescence was captured and digitally transferred to an interfaced PC.

T1 sequence (Q8NER1 whole entry): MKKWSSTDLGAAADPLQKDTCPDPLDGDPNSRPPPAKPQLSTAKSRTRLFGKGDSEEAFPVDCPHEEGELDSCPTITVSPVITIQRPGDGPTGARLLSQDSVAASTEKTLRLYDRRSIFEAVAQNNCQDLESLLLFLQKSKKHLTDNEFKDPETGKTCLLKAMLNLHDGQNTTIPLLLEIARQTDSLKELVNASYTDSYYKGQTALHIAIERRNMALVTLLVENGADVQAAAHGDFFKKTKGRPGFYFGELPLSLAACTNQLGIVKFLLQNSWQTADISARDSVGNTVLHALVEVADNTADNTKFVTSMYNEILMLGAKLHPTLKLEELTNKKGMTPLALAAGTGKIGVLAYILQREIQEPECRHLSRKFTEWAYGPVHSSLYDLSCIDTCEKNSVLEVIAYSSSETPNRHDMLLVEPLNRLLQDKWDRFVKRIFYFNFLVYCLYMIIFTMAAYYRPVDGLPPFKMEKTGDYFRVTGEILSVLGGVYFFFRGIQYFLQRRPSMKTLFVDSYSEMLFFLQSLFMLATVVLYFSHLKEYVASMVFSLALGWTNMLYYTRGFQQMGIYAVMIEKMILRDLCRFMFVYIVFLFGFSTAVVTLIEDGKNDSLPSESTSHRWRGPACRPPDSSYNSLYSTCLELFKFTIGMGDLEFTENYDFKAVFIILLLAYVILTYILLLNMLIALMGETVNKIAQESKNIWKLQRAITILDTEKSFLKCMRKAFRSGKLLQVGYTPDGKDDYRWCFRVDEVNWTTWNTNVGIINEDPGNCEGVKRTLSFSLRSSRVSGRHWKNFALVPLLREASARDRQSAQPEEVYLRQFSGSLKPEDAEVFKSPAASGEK

On to `O=C(Nc1cccc2c1C[C@@H](O)CC2)N[C@@H]1CC[C@@H](c2ccccc2)C1` [Compound F, 1-[(7S)-7-hydroxy-5,6,7,8-tetrahydronaphthalen-1-yl]-3-[(1R,3R)-3-phenylcyclopentyl]urea, reference compound], for which the concentration for half-maximal inhibition (IC50) in assay [1] was found to be 5 nM. The remaining activity at 37.5 µM in assay [2] was 6%.
As to `O=C(Nc1cccc2c1C[C@H](O)CC2)N[C@@H]1CC[C@H](c2ccccc2)C1` [Compound G, 1-[(7R)-7-hydroxy-5,6,7,8-tetrahydronaphthalen-1-yl]-3-[(1R,3S)-3-phenylcyclopentyl]urea, reference compound], the IC50 in assay [1] amounted to 4 nM. Moreover, in assay [2], the remaining activity at 37.5 µM is 2%.
As for `O=C(Nc1cccc2c1C[C@H](O)C2)N[C@@H]1CC[C@H](c2ccccc2)C1` [Example 1, 1-[(2R)-2-hydroxy-2,3-dihydro-1H-inden-4-yl]-3-[(1R,3S)-3-phenylcyclopentyl]urea], the IC50 in assay [1] came to 106 nM. The remaining activity at 37.5 µM in assay [2] was determined as 93%.
On the same counts, the results for `C[C@H]1Oc2c(NC(=O)N[C@@H]3CC[C@H](c4ccccc4)C3)cccc2NC1=O` [Example 3, 1-[(2R)-2-methyl-3-oxo-3,4-dihydro-2H-1,4-benzoxazin-8-yl]-3-[(1R,3S)-3-phenylcyclopentyl]urea] are 55 nM and 2%.
Turning to `O=C1CCc2ccc(NC(=O)N[C@@H]3CC[C@H](c4ccccc4)C3)cc2N1` [Example 5, 1-(2-oxo-1,2,3,4-tetrahydroquinolin-7-yl)-3-[(1R,3S)-3-phenylcyclopentyl]urea], the half-inhibitory concentration (IC50) in assay [1] was determined as 70 nM. For the same compound, the remaining activity at 37.5 µM in assay [2] was 81%.
On to `O=C(Nc1cccc2c1C[C@H](O)C2)N[C@H]1CC[C@H](c2ccccc2)C1` [Example 8, 1-[(2R)-2-hydroxy-2,3-dihydro-1H-inden-4-yl]-3-[(1S,3S)-3-phenylcyclopentyl]urea], for which the IC50 in assay [1] turned out to be 123 nM. Further, the remaining activity at 37.5 µM in assay [2] was determined as 78%.
As for `O=C(Nc1cccc2c1C[C@@H](O)C2)N[C@H]1CC[C@H](c2ccccc2)C1` [Example 9, 1-[(2S)-2-hydroxy-2,3-dihydro-1H-inden-4-yl]-3-[(1S,3S)-3-phenylcyclopentyl]urea], the IC50 in assay [1] was determined as 205 nM. In addition, the remaining activity at 37.5 µM in assay [2] came out at 14%.
Regarding `C[C@H]1Oc2c(NC(=O)N[C@H]3CC[C@H](c4ccccc4)C3)cccc2NC1=O` [Example 10, 1-[(2R)-2-methyl-3-oxo-3,4-dihydro-2H-1,4-benzoxazin-8-yl]-3-[(1S,3S)-3-phenylcyclopentyl]urea], the half-maximal inhibitory concentration (IC50) in assay [1] is 84 nM. Moreover, in assay [2], the remaining activity at 37.5 µM amounted to 3%.
On the same counts, the results for `Cn1ncc2c(NC(=O)N[C@H]3CC[C@H](c4ccccc4)C3)cccc21` [Example 11, 1-(1-methyl-1H-indazol-4-yl)-3-[(1S,3S)-3-phenylcyclopentyl]urea] are 84 nM and 49%.
As for `O=C1CCc2ccc(NC(=O)N[C@H]3CC[C@H](c4ccccc4)C3)cc2N1` [Example 12, 1-(2-oxo-1,2,3,4-tetrahydroquinolin-7-yl)-3-[(1S,3S)-3-phenylcyclopentyl]urea], the IC50 in assay [1] was 207 nM. For the same compound, the remaining activity at 37.5 µM in assay [2] came out at 65%.
In the case of `Cc1cc2c(NC(=O)N[C@H]3CC[C@H](c4ccccc4)C3)c(F)ccc2cn1` [Example 13, 1-(6-fluoro-3-methylisoquinolin-5-yl)-3-[(1S,3S)-3-phenylcyclopentyl]urea], in assay [1], the 50% inhibitory concentration (IC50) was found to be 13 nM. For the same compound, the remaining activity at 37.5 µM in assay [2] worked out at 60%.
Consider `O=C(Nc1cccc2c1C[C@H](O)C2)N[C@@H]1CC[C@@H](c2ccccc2)C1` [Example 15, 1-[(2R)-2-hydroxy-2,3-dihydro-1H-inden-4-yl]-3-[(1R,3R)-3-phenylcyclopentyl]urea], for which the concentration for half-maximal inhibition (IC50) in assay [1] worked out at 179 nM. Further, in assay [2], the remaining activity at 37.5 µM worked out at 20%.
Take `O=C(Nc1cccc2c1C[C@@H](O)C2)N[C@@H]1CC[C@@H](c2ccccc2)C1` [Example 16, 1-[(2S)-2-hydroxy-2,3-dihydro-1H-inden-4-yl]-3-[(1R,3R)-3-phenylcyclopentyl]urea]: the 50% inhibitory concentration (IC50) in assay [1] stood at 80 nM. Besides, the remaining activity at 37.5 µM in assay [2] amounted to 87%.
Take `C[C@H]1Oc2c(NC(=O)N[C@@H]3CC[C@@H](c4ccccc4)C3)cccc2NC1=O` [Example 17, 1-[(2R)-2-methyl-3-oxo-3,4-dihydro-2H-1,4-benzoxazin-8-yl]-3-[(1R,3R)-3-phenylcyclopentyl]urea]: the half-maximal inhibitory concentration (IC50) in assay [1] is 373 nM. In addition, the remaining activity at 37.5 µM in assay [2] is 25%.
For the compound `Cn1ncc2c(NC(=O)N[C@@H]3CC[C@@H](c4ccccc4)C3)cccc21` [Example 18, 1-(1-methyl-1H-indazol-4-yl)-3-[(1R,3R)-3-phenylcyclopentyl]urea], in assay [1], the IC50 worked out at 70 nM. Besides, the remaining activity at 37.5 µM in assay [2] amounted to 18%.
As for `O=C1CCc2ccc(NC(=O)N[C@@H]3CC[C@@H](c4ccccc4)C3)cc2N1` [Example 19, 1-(2-oxo-1,2,3,4-tetrahydroquinolin-7-yl)-3-[(1R,3R)-3-phenylcyclopentyl]urea], the half-inhibitory concentration (IC50) in assay [1] was greater than 37500 nM. Moreover, the remaining activity at 37.5 µM in assay [2] worked out at 81%.
On to `O=C(Nc1cccc2c1C[C@H](O)C2)N[C@H]1CC[C@@H](c2ccccc2)C1` [Example 22, 1-[(2R)-2-hydroxy-2,3-dihydro-1H-inden-4-yl]-3-[(1S,3R)-3-phenylcyclopentyl]urea], for which the IC50 in assay [1] is 286 nM. The remaining activity at 37.5 µM in assay [2] was determined as 41%.
As to `O=C(Nc1cccc2c1C[C@@H](O)C2)N[C@H]1CC[C@@H](c2ccccc2)C1` [Example 23, 1-[(2S)-2-hydroxy-2,3-dihydro-1H-inden-4-yl]-3-[(1S,3R)-3-phenylcyclopentyl]urea], the IC50 in assay [1] turned out to be 138 nM. In addition, the remaining activity at 37.5 µM in assay [2] is 88%.
For the compound `C[C@H]1Oc2c(NC(=O)N[C@H]3CC[C@@H](c4ccccc4)C3)cccc2NC1=O` [Example 24, 1-[(2R)-2-methyl-3-oxo-3,4-dihydro-2H-1,4-benzoxazin-8-yl]-3-[(1S,3R)-3-phenylcyclopentyl]urea], the IC50 in assay [1] was 85 nM. Besides, the remaining activity at 37.5 µM in assay [2] turned out to be 1%.
Consider `Cn1ncc2c(NC(=O)N[C@H]3CC[C@@H](c4ccccc4)C3)cccc21` [Example 25, 1-(1-methyl-1H-indazol-4-yl)-3-[(1S,3R)-3-phenylcyclopentyl]urea], for which the IC50 in assay [1] was 628 nM. The remaining activity at 37.5 µM in assay [2] stood at 46%.
